Results taken from patent publication US12453784B2 (priority 2018, dated 2025).

Tests used:
[1] = test infusion, 500 μL to each motor cortex
[2] = system: release of neurotransmitters including acetylcholine, norepinephrine, and glutamate; conditions: in vivo; cited from earlier work

Molecule | motor cortical coverage [1] | period of reversible inhibition of neurotransmitter release [2]
[Gd] [gadolinium] | satisfactory motor cortical coverage | 
Botulinum toxin type A |  | 2-6 months
